US20150147792A1, “Betaine Enhancement of Fermentation to make C4 Diacids” (ARCHER DANIELS MIDLAND COMPANY, priority 2012, published 2015)

Columns and labels:
[1] = tested on: A. succinogenes strain FZ45 830.60; test: Production fermentation of dextrose to succinic acid, strain FZ45 830.60; format: cell-based, Actinobacillus succinogenes
Text: In a medium containing 90-155 g/l of dextrose as the primary carbon source supplemented with 15 g/liter of a commercial yeast extract (TASTONE™ 900AG from Sensient, Milwaukee, Wis.) the 830.60 strain was capable of producing a titer of 100 g/l of succinic acid with a 85-90% yield from dextrose at a productivity rate of 2 To 3 g/liter/hour.
For the present work, a variety of media alterations were tried in an attempt to substitute the commercial yeast extract with corn steep liquor and/or with a locally produced homogenized yeast extract made by homogenizing aerobically grown yeast produced incident to ethanol fermentation, and/or by supplementing the media with betaine and/or glutamate. To distinguish commercial yeast extract, which is available from distributors a dry powder, from a homogenate of yeast cells made locally by rupturing yeast cells in liquid suspension, the latter is referred to herein as “local yeast homogenate”
Corn steep liquor (CSL) was used as the target nutrient source to substitute for yeast extract. CSL is a by-product of wet corn milling obtained by steeping corn grain in water containing a small amount of a sulfide compound for several hours. CSL is rich in low molecular weight organic acids, some carbohydrates, vitamins and minerals that are released from the corn grain. The amount of CSL and local yeast homogenate is shown in terms of dry solids basis (dsb) meaning the amount of material added excluding water weight, per liter of fermentation. Glutamate was added in the form of monosodium glutamate (MSG) and betaine was added in the form of the anhydrous base in the amounts shown. Dextrose was present at between 90 and 125 g/l in all starting media.
Local yeast homogenate was obtained by aerobically growing an ethanol producing strain of the bakers yeast S. cerevesiae on dextrose until the culture reached stationary phase, recovering the yeast cells as paste, and homogenizing the yeast paste with an APV Gaulin French press type homogenizer at a pressures of 12,500 psi or greater. The glutamic acid was added in the form of monosodium glutamate, and the betaine was betaine base anhydrous from MP Biomedicals
Inoculum Medium A. succinogenes strain FZ45830,60, provided by MBI International, was grown in two 100 ml serum bottles each containing 50 ml of inoculum medium incubated at 38° C. for 15-24 hours by shaking in a rotary incubator at 180 rpm, which was then used as 5% vol/vol inoculum for final fermenter volume of 2.0 liters in a 7.5 lite fermenter. The inoculum medium was prepared in two steps. In the first step, 4 g of MgCO3 was weighed into a 100 ml Wheaton serum bottle containing 30 ml of distilled water, which was then sealed, autoclaved and cooled. In the second step the remaining ingredients, which were prepared as supplemental sterilized solutions, were added to the serum bottle with a sterile syringe. The supplemental solutions and formulation of the inoculum media are shown below.
The serum bottle was inoculated with 1.5 ml of an overnight culture grown in the same medium. The serum bottle was flushed and overlaid with CO2 before incubation
Seed Medium A New Brunswick EPPENDORF BiOFLO 310-7.5 liter fermenter was inoculated with the 2 serum bottles containing the inoculation culture for initial production fermentation studies or as a seed culture for larger scale fermentations. The operating conditions are listed below:
The seed medium contained 4 g/l CSL dsb, 14 g/l TASTONE 900AG yeast extract, 0.0002 g/l biotin, 10 ml/l 0.5M sodium phosphate buffer and 100 g/l dextrose. The pH was adjusted with a 35% Mg(OH)2 slurry. The seed fermenter was inoculated at 5% v/v from the incubated serum bottle culture and was harvested in the early log phase (e.g., an increase in OD of 3 to 4 units) other measure of early log phase?) Two hundred ml of the seed culture was used to inoculate 4 liters of media in a second 7.5 liter production fermenter. […]

[2] = tested on: Actinobacillus Succinogenes; settings: osmoprotectant added to media; cited from earlier work

In the case of C[N+](C)(C)CC(=O)O [betaine, N,N,N-trimethylglycine], the succinic acid produced ([1]; betaine 0.1 to 1 g/liter) is reported as 70 to 115 g/L, the “succinic acid produced, concentration” value ([1]; betaine 0.1 to 1 g/liter) is reported as 590 to 980 mM and the productivity rate ([1]; betaine 1 g/liter, Table 1) is reported as 2.4-2.9 g per liter per hour. For the same compound, the titer ([1]; betaine 1 g/liter, Table 1) was 90 to 104 g/L and the yield from glucose ([1]; betaine 1 g/liter, Table 1) was “about 85%”.

With O=C(O)CCCC[C@@H]1SC[C@@H]2NC(=O)N[C@@H]21 [biotin] the “effect on yield from glucose” value ([1]; betaine provided as sole non-nutrative supplement) was “did not statistically increase the yield from glucose”.

For O=C(O)[C@@H]1CCCN1 [proline], the increase in productivity [2] is given as 22%.
